From ChEMBL document CHEMBL1151752, “Synthesis and structure-activity relationships of 2-amino-1-aroylnaphthalene and 2-hydroxy-1-aroylnaphthalenes as potent antitubulin agents” (J Med Chem, 2008)

Key:
KB [1] = experiment: Growth inhibition of human KB-7D cells overexpressing multidrug resistant associated protein after 72 hrs by methylene blue dye assay; type: functional, cell-based
KB [2] = experiment: Growth inhibition of human Pgp170 overexpressing multidrug resistant-KB-TAX50 cells after 72 hrs by methylene blue dye assay; type: functional, cell-based
KB [3] = experiment: Growth inhibition of human Pgp170 overexpressing multidrug resistant-KB-VIN10 cells after 72 hrs by methylene blue dye assay; type: functional, cell-based
HT-29 = experiment: Growth inhibition of human HT-29 cells after 72 hrs by methylene blue dye assay; type: functional, cell-based; details: HT-29, 72 h
MKN-45 = experiment: Growth inhibition of human MKN45 cells after 72 hrs by methylene blue dye assay; type: functional, cell-based; details: MKN-45, 72 h
KB [4] = experiment: Growth inhibition of human KB cells after 72 hrs by methylene blue dye assay; type: functional, cell-based
[5] = Inhibition of tubulin polymerization after 30 mins
NCI-H460 = experiment: Growth inhibition of human H460 cells after 72 hrs by methylene blue dye assay; type: functional, cell-based; details: NCI-H460, 72 h
[6] = Displacement of [3H]colchicine from tubulin after 2 hrs at 5 uM
[7] = Growth inhibition of human fibroblast Detrot 551 cells after 72 hrs by methylene blue dye assay; type: cell-based; details: Detrot 551, 72 h

Row | IC50 (KB [1]) [nM] | IC50 (KB [2]) [nM] | IC50 (KB [3]) [nM] | IC50 (HT-29) [nM] | IC50 (MKN-45) [nM] | IC50 (KB [4]) [nM] | IC50 [5] [nM] | IC50 (NCI-H460) [nM] | Activity [6] [%] | SMILES | IC50 [7] [nM]
1 | 54000 | 3500 | 23000 | – | – | – | – | – | – | COc1cc([C@@H]2c3cc4c(cc3[C@@H](O[C@@H]3O[C@@H]5CO[C@@H](C)O[C@H]5[C@H](O)[C@H]3O)[C@H]3COC(=O)[C@H]23)OCO4)cc(OC)c1O [ETOPOSIDE] | –
2 | – | – | 7910 | 9850 | 7430 | 8800 | > 10000 | > 10000 | – | COc1ccc2c(N)c(C(=O)c3cc(OC)c(OC)c(OC)c3)ccc2c1 | –
3 | – | – | 1100 | 1320 | 840 | 1000 | – | 987 | – | CCCc1ccc2cc(OC)ccc2c1C(=O)c1cc(OC)c(OC)c(OC)c1 | –
4 | – | – | 512 | 667 | 320 | 600 | – | 764 | – | CCc1ccc2cc(OC)ccc2c1C(=O)c1cc(OC)c(OC)c(OC)c1 | –
5 | – | – | 364 | 512 | 338 | 381 | – | 416 | – | CNc1ccc2cc(OC)ccc2c1C(=O)c1cc(OC)c(OC)c(OC)c1 | –
6 | – | – | > 10000 | > 10000 | > 10000 | > 10000 | – | > 10000 | – | COc1ccc2c(C(=O)c3cc(OC)c(OC)c(OC)c3)c(N(C)C)ccc2c1 | –
7 | – | – | 2430 | 2850 | 1760 | 2600 | – | 2720 | – | CCCOc1ccc2cc(OC)ccc2c1C(=O)c1cc(OC)c(OC)c(OC)c1 | –
8 | – | – | 6.2 | 5.9 | 3.2 | 4.6 | 2800 | 7.1 | 85 | COc1ccc2c(C(=O)c3cc(OC)c(OC)c(OC)c3)c[nH]c2c1 | –
9 | 3.5 | 3.1 | 3.3 | 15.4 | 2.1 | 2.9 | 2400 | 3.6 | 85 | COc1ccc2c(C(=O)c3cc(OC)c(OC)c(OC)c3)c(N)ccc2c1 | > 1000
10 | 1.2 | 17.6 | 90.1 | – | – | 0.4 | – | – | – | CC[C@]1(O)C[C@H]2CN(CCc3c([nH]c4ccccc34)[C@@](C(=O)OC)(c3cc4c(cc3OC)N(C=O)[C@H]3[C@@](O)(C(=O)OC)[C@H](OC(C)=O)[C@]5(CC)C=CCN6CC[C@]43[C@@H]65)C2)C1 [VINCRISTINE] | –
11 | – | – | > 10000 | > 10000 | > 10000 | > 10000 | – | > 10000 | – | COc1ccc2c(OC)c(C(=O)c3cc(OC)c(OC)c(OC)c3)ccc2c1 | –
12 | – | – | 530 | 548 | 462 | 510 | – | 716 | – | COc1ccc2cc(C(=O)c3cc(OC)c(OC)c(OC)c3)ccc2c1 | –
13 | – | – | 70 | 144 | 53 | 65 | 2700 | 84 | 52 | COc1ccc2c(C(=O)c3cc(OC)c(OC)c(OC)c3)c(OC)ccc2c1 | –
14 | 16.9 | 15 | 11 | 26.3 | 21 | 8.2 | 2600 | 12.6 | 75 | COc1ccc2c(C(=O)c3cc(OC)c(OC)c(OC)c3)c(O)ccc2c1 | > 1000
15 | – | – | 58 | 69.4 | 44.1 | 72.9 | 4300 | 85.5 | 68 | COc1ccc2c(C(=O)c3cc(OC)c(OC)c(OC)c3)cccc2c1 | –
16 | – | – | 263 | 412 | 254 | 276 | 2900 | 321 | 67 | COc1ccc2c(C(=O)c3cc(OC)c(OC)c(OC)c3)c(C)ccc2c1 | –
17 | – | – | – | – | – | – | – | – | 93 | COc1ccc(/C=C\c2cc(OC)c(OC)c(OC)c2)cc1O | –
18 | – | – | 912 | 1130 | 874 | 1000 | – | 1210 | – | CCOc1ccc2cc(OC)ccc2c1C(=O)c1cc(OC)c(OC)c(OC)c1 | –
19 | – | – | > 10000 | > 10000 | > 10000 | > 10000 | – | > 10000 | – | COc1ccc2c(O)c(C(=O)c3cc(OC)c(OC)c(OC)c3)ccc2c1 | –
20 | 7.9 | 273 | 16500 | – | – | 3.3 | – | – | – | CC(=O)O[C@H]1C(=O)[C@@]2(C)[C@H]([C@H](OC(=O)c3ccccc3)[C@]3(O)C[C@H](OC(=O)[C@H](O)[C@@H](NC(=O)c4ccccc4)c4ccccc4)C(C)=C1C3(C)C)[C@]1(OC(C)=O)CO[C@@H]1C[C@@H]2O [PACLITAXEL] | –

Row | SMILES | IC50 (KB [1]) [nM] | IC50 (KB [2]) [nM] | IC50 (KB [3]) [nM] | IC50 (HT-29) [nM] | IC50 (MKN-45) [nM] | IC50 (KB [4]) [nM] | IC50 [5] [nM] | IC50 (NCI-H460) [nM] | Activity [6] [%] | IC50 [7] [nM]
21 | COc1cc2c(c(OC)c1OC)-c1ccc(OC)c(=O)cc1[C@@H](NC(C)=O)CC2 [COLCHICINE] | – | – | – | 10 | – | 11 | 3200 | 18 | – | –
